Laboratory results taken from ChEMBL document CHEMBL3885861, “Open TG-GATES”.

Species on record: Rattus norvegicus
Experiment: Open TG-GATES - Regimen: Single
Format: toxicity, organism-based, Sprague-Dawley
Parameters: regimen Single, gender Male, age 6 weeks
Conditions: in vivo, po, 50 mg/kg, route gavage, dose level Low; for APTT / Bas / Eos / Fbg / Hb / Ht / Lym / MCH / MCHC / MCV / Mono / Neu / PT / Plat / RBC / Ret / WBC: tissue Blood; for KIDNEY_L / KIDNEY_R / KIDNEY_TOTAL: tissue Kidney; for LIVER: tissue Liver; for A/G / ALP / ALT / AST / BUN / CRE / Ca / Cl / DBIL / GLC / IP / K / LDH / Na / PL / RALB / TBIL / TC / TG / TP / gamma-GTP: tissue Plasma

`CN1C(=O)OC(C)(C)C1=O` [TRIMETHADIONE] gave a TERMINAL_BW (3 h) of 208.1 g, an APTT (3 h) of 16.8 s and a Bas (3 h) of 0%. For the same molecule, the Eos (3 h) was 0.8%, the Fbg (3 h) was 278 mg/dL and the Hb (3 h) was 13.4 g/dL. It also gave a Ht (3 h) of 40.2%, a Lym (3 h) of 78.4% and an MCH (3 h) of 21.3 pg. It also gave an MCHC (3 h) of 33.3%, an MCV (3 h) of 64 fL and a Mono (3 h) of 3%. It also gave a Neu (3 h) of 17.4%, a PT (3 h) of 13.8 s and a Plat (3 h) of 129 x10_4/uL. The RBC (3 h) was 628.4 x10_4/ul, the Ret (3 h) was 8.1% and the WBC (3 h) was 86.2 x10_2/uL. It also gave a KIDNEY_L (3 h) of 0.9 g, a KIDNEY_R (3 h) of 0.9 g and a KIDNEY_TOTAL (3 h) of 1.8 g. For the same molecule, the LIVER (3 h) was 9.6 g, the A/G (3 h) was 0.9 and the ALP (3 h) was 1564.2 IU/L. It also gave an ALT (3 h) of 42.6 IU/L, an AST (3 h) of 80.4 IU/L and a BUN (3 h) of 10.4 mg/dL. For the same molecule, the CRE (3 h) was 0.2 mg/dL, the Ca (3 h) was 10.6 mg/dL and the Cl (3 h) was 108.2 meq/L. It also gave a DBIL (3 h) of 0.006 mg/dL, a GLC (3 h) of 180.8 mg/dL and an IP (3 h) of 8.7 mg/dL. The K (3 h) was 4.1 meq/L, the LDH (3 h) was 133.8 IU/L and the Na (3 h) was 141.4 meq/L. It also gave a PL (3 h) of 146.8 mg/dL, an RALB (3 h) of 2.5 g/dL and a TBIL (3 h) of 0.064 mg/dL. The TC (3 h) was 76.4 mg/dL, the TG (3 h) was 77.8 mg/dL and the TP (3 h) was 5.4 g/dL. It also gave a gamma-GTP (3 h) of 1.6 IU/L, a TERMINAL_BW (6 h) of 207.4 g and an APTT (6 h) of 17 s. The Bas (6 h) was 0%, the Eos (6 h) was 1% and the Fbg (6 h) was 268.2 mg/dL. The Hb (6 h) was 13.5 g/dL, the Ht (6 h) was 40.5% and the Lym (6 h) was 78.6%. It also gave an MCH (6 h) of 21.6 pg, an MCHC (6 h) of 33.2% and an MCV (6 h) of 64.9 fL. For the same molecule, the Mono (6 h) was 2.4%, the Neu (6 h) was 17.2% and the PT (6 h) was 13.7 s. The Plat (6 h) was 120 x10_4/uL, the RBC (6 h) was 625.4 x10_4/ul and the Ret (6 h) was 8%. It also gave a WBC (6 h) of 71.3 x10_2/uL, a KIDNEY_L (6 h) of 0.9 g and a KIDNEY_R (6 h) of 0.9 g. For the same molecule, the KIDNEY_TOTAL (6 h) was 1.9 g, the LIVER (6 h) was 8.6 g and the A/G (6 h) was 0.9. The ALP (6 h) was 1854.2 IU/L, the ALT (6 h) was 39.8 IU/L and the AST (6 h) was 79.8 IU/L. It also gave a BUN (6 h) of 10.8 mg/dL, a CRE (6 h) of 0.2 mg/dL and a Ca (6 h) of 10.7 mg/dL. For the same molecule, the Cl (6 h) was 108 meq/L, the DBIL (6 h) was 0.004 mg/dL and the GLC (6 h) was 185.6 mg/dL. It also gave an IP (6 h) of 8.9 mg/dL, a K (6 h) of 4.2 meq/L and an LDH (6 h) of 130.4 IU/L. The Na (6 h) was 140.8 meq/L, the PL (6 h) was 139.4 mg/dL and the RALB (6 h) was 2.5 g/dL. It also gave a TBIL (6 h) of 0.06 mg/dL, a TC (6 h) of 77.2 mg/dL and a TG (6 h) of 54.4 mg/dL. It also gave a TP (6 h) of 5.3 g/dL, a gamma-GTP (6 h) of 1.2 IU/L and a TERMINAL_BW (9 h) of 201.4 g. It also gave an APTT (9 h) of 18.8 s, a Bas (9 h) of 0% and an Eos (9 h) of 1%. The Fbg (9 h) was 285.2 mg/dL, the Hb (9 h) was 13.2 g/dL and the Ht (9 h) was 39.8%. It also gave a Lym (9 h) of 78.8%, an MCH (9 h) of 21.5 pg and an MCHC (9 h) of 33.2%. For the same molecule, the MCV (9 h) was 64.6 fL, the Mono (9 h) was 2% and the Neu (9 h) was 17.6%. For the same molecule, the PT (9 h) was 13.6 s, the Plat (9 h) was 142.2 x10_4/uL and the RBC (9 h) was 615.4 x10_4/ul. The Ret (9 h) was 8.1%, the WBC (9 h) was 80.8 x10_2/uL and the KIDNEY_L (9 h) was 0.9 g. It also gave a KIDNEY_R (9 h) of 0.9 g, a KIDNEY_TOTAL (9 h) of 1.8 g and an LIVER (9 h) of 7.5 g. The A/G (9 h) was 0.9, the ALP (9 h) was 1414 IU/L and the ALT (9 h) was 34.8 IU/L. It also gave an AST (9 h) of 74.6 IU/L, a BUN (9 h) of 8.4 mg/dL and a CRE (9 h) of 0.2 mg/dL. It also gave a Ca (9 h) of 10.4 mg/dL, a Cl (9 h) of 108.6 meq/L and a DBIL (9 h) of 0.002 mg/dL. The GLC (9 h) was 158.8 mg/dL, the IP (9 h) was 9.7 mg/dL and the K (9 h) was 3.9 meq/L. The LDH (9 h) was 99.8 IU/L, the Na (9 h) was 141.2 meq/L and the PL (9 h) was 143.2 mg/dL. For the same molecule, the RALB (9 h) was 2.5 g/dL, the TBIL (9 h) was 0.064 mg/dL and the TC (9 h) was 84.6 mg/dL. For the same molecule, the TG (9 h) was 33.2 mg/dL, the TP (9 h) was 5.3 g/dL and the gamma-GTP (9 h) was 1.2 IU/L. The TERMINAL_BW (24 h) was 222.7 g, the APTT (24 h) was 19.1 s and the Bas (24 h) was 0%. It also gave an Eos (24 h) of 1%, a Fbg (24 h) of 267 mg/dL and a Hb (24 h) of 13.4 g/dL. For the same molecule, the Ht (24 h) was 40.3%, the Lym (24 h) was 76.4% and the MCH (24 h) was 21.6 pg. The MCHC (24 h) was 33.2%, the MCV (24 h) was 64.9 fL and the Mono (24 h) was 2.8%. It also gave a Neu (24 h) of 19.4%, a PT (24 h) of 13.4 s and a Plat (24 h) of 118.6 x10_4/uL. The RBC (24 h) was 620 x10_4/ul, the Ret (24 h) was 7.3% and the WBC (24 h) was 100.7 x10_2/uL. It also gave a KIDNEY_L (24 h) of 1 g, a KIDNEY_R (24 h) of 1 g and a KIDNEY_TOTAL (24 h) of 1.9 g. For the same molecule, the LIVER (24 h) was 10 g, the A/G (24 h) was 0.8 and the ALP (24 h) was 2138 IU/L. The ALT (24 h) was 47.4 IU/L, the AST (24 h) was 77.8 IU/L and the BUN (24 h) was 14.6 mg/dL. It also gave a CRE (24 h) of 0.2 mg/dL, a Ca (24 h) of 10.8 mg/dL and a Cl (24 h) of 105 meq/L. The DBIL (24 h) was 0.008 mg/dL, the GLC (24 h) was 173.2 mg/dL and the IP (24 h) was 7.4 mg/dL. For the same molecule, the K (24 h) was 4 meq/L, the LDH (24 h) was 112.2 IU/L and the Na (24 h) was 142.6 meq/L. The PL (24 h) was 151.4 mg/dL, the RALB (24 h) was 2.6 g/dL and the TBIL (24 h) was 0.05 mg/dL. The TC (24 h) was 77.6 mg/dL, the TG (24 h) was 99.4 mg/dL and the TP (24 h) was 5.7 g/dL. For the same molecule, the gamma-GTP (24 h) was 1.2 IU/L.
